Key:
Human δ-opioid (DOP) = target: T1, Human δ-opioid (DOP) (Homo sapiens, UniProt P41143); assay: Radioligand binding, human δ-opioid (DOP) membranes, FlashPlate, [3H]-Bremazocine; details: compound at 10 μM; for A1: inhibition of radioligand binding, human δ-opioid (DOP) / A1 radioligand binding, percentage inhibition: [3H]-Bremazocine
T1 construct: purchased Perkin Elmer Biosignal
In short: (§1)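 Cloned human receptor membranes were coated onto FlashPlate wells and incubated with radioligand and compound (added from a 0.5 mM DMSO daughter plate) for 1 hour at room temperature in the dark. Scintillation counting gave percent inhibition, with DMSO defining total and reference ligand defining non-specific binding.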

Human κ-Opioid (KOP) = target: T2, Human κ-Opioid (KOP) (Homo sapiens, UniProt P41145); assay: Radioligand binding, human κ-opioid (KOP) membranes, filtration, [3H]-Diprenorphine; details: compound at 10 μM; for A2: inhibition of radioligand binding, human κ-opioid (KOP) / A2 radioligand binding, percentage inhibition: [3H]-Diprenorphine
T2 construct: purchased Perkin Elmer Biosignal
T2 sequence (P41145 whole entry): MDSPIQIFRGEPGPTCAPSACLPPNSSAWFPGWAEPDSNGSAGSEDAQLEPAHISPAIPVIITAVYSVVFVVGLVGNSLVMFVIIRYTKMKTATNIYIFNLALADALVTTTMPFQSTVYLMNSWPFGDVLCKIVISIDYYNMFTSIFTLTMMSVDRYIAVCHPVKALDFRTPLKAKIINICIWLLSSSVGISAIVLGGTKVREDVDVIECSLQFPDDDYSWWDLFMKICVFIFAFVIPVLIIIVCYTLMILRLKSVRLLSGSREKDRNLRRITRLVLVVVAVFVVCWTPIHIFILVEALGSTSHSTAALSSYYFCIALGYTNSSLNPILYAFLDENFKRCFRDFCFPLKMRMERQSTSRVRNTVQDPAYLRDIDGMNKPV
In short: (§2)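 Percent inhibition of radioligand binding measured on recombinant human membranes: NK1 with [125I]-Substance P, KOP with [3H]-Diprenorphine. Incubation 1 h at room temperature, then harvest onto 0.3% PEI-soaked filters, cold Tris-HCl pH 7.4 washes and scintillation counting; non-specific binding from reference ligand wells.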

Human Melanocortin (MC3) = target: T3, Human Melanocortin (MC3) (Homo sapiens, UniProt P41968); assay: Radioligand binding, human melanocortin MC3 membranes, FlashPlate, [125I]-NDP-αMSH; details: compound at 10 μM; for A3: inhibition of radioligand binding, human melanocortin (MC3) / A3 radioligand binding, percentage inhibition: [125I]-NDP-αMSH
T3 construct: purchased Perkin Elmer Biosignal
T3 sequence (P41968 whole entry): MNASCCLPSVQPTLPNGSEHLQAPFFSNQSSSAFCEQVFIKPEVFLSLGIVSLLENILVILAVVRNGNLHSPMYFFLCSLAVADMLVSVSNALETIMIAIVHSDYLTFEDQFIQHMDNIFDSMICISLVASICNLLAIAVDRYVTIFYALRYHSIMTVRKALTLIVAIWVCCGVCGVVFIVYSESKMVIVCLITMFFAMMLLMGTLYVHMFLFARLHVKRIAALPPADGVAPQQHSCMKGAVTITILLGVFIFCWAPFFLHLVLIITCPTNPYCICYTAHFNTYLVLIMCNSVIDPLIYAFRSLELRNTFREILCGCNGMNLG
In short: as §1

Human Melanocortin (MC4) = target: T4, Human Melanocortin (MC4) (Homo sapiens, UniProt P32245); assay: Radioligand binding, human melanocortin MC4 membranes, FlashPlate, [125I]-NDP-αMSH; details: compound at 10 μM; for A4: inhibition of radioligand binding, human melanocortin (MC4) / A4 radioligand binding, percentage inhibition: [125I]-NDP-αMSH
T4 construct: purchased Perkin Elmer Biosignal
T4 sequence (P32245 whole entry): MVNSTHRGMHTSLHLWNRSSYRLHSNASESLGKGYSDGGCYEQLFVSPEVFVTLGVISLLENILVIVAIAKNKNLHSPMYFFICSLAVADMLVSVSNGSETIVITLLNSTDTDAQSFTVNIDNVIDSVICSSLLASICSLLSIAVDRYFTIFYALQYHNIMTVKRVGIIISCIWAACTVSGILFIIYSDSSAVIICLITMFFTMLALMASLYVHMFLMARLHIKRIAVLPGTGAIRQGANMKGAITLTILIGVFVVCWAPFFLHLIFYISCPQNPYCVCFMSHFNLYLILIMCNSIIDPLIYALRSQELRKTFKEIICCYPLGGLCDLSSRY
In short: as §1

Human melanocortin (MC5) = target: T5, Human melanocortin (MC5) (Homo sapiens, UniProt P33032); assay: Radioligand binding, human melanocortin MC5 membranes, FlashPlate, [125I]-NDP-αMSH; details: compound at 10 μM; for A5: inhibition of radioligand binding, human melanocortin (MC5) / A5 radioligand binding, percentage inhibition: [125I]-NDP-αMSH
T5 construct: purchased Perkin Elmer Biosignal
T5 sequence (P33032 whole entry): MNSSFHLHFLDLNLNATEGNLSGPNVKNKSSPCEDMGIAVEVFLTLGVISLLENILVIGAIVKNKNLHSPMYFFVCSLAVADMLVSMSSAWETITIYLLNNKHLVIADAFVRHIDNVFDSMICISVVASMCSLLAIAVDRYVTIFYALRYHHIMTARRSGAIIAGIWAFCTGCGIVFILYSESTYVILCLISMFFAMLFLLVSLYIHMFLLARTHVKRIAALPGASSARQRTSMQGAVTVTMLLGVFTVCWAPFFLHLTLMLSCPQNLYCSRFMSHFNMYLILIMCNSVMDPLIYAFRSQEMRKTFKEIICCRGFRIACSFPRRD
In short: as §1

[1] = target: T6, Human melanin-concentrating hormone (MCH1) (Homo sapiens, UniProt Q99705); assay: Radioligand binding, human melanin-concentrating hormone MCH1 membranes, FlashPlate, [125I]-S36057; details: compound at 10 μM; for A6: inhibition of radioligand binding, human melanin-concentrating hormone (MCH1) / A6 radioligand binding, percentage inhibition: [125I]-S36057
T6 construct: purchased Perkin Elmer Biosignal
T6 sequence (Q99705 whole entry): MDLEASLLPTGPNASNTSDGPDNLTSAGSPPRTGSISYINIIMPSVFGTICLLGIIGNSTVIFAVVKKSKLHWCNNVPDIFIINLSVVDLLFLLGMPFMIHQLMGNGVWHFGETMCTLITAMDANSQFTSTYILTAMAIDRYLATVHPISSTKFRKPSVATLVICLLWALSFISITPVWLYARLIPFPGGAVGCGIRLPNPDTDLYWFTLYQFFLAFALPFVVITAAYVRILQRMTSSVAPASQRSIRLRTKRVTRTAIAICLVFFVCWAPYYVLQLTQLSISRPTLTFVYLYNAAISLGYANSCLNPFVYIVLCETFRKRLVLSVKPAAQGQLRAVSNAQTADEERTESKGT
In short: as §1

Human μ-opioid (MOP) = target: T7, Human μ-opioid (MOP) (Homo sapiens, UniProt P35372); assay: Radioligand binding, human μ-opioid (MOP) membranes, FlashPlate, [3H]-Naloxone; details: compound at 10 μM; for A7: inhibition of radioligand binding, human μ-opioid (MOP) / A7 radioligand binding, percentage inhibition: [3H]-Naloxone
T7 construct: purchased Perkin Elmer Biosignal
T7 sequence (P35372 whole entry): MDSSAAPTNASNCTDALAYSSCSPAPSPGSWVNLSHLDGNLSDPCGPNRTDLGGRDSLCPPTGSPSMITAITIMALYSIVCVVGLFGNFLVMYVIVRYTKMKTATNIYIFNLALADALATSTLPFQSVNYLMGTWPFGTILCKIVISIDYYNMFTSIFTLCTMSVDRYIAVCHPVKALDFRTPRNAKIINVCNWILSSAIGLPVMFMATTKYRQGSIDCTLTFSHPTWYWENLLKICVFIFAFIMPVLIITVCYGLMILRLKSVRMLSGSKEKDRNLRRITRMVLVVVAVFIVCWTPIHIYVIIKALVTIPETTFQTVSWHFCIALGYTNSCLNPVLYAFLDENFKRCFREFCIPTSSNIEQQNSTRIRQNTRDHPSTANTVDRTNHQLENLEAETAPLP
In short: as §1

Human neurokinin (NK1) = target: T8, Human neurokinin (NK1) (Homo sapiens, UniProt P25103); assay: Radioligand binding, human neurokinin NK1 membranes, filtration, [125I]-Substance P; details: compound at 10 μM; for A8: inhibition of radioligand binding, human neurokinin (NK1) / A8 radioligand binding, percentage inhibition: [125I]-Substance P
T8 construct: purchased Perkin Elmer Biosignal
T8 sequence (P25103 whole entry): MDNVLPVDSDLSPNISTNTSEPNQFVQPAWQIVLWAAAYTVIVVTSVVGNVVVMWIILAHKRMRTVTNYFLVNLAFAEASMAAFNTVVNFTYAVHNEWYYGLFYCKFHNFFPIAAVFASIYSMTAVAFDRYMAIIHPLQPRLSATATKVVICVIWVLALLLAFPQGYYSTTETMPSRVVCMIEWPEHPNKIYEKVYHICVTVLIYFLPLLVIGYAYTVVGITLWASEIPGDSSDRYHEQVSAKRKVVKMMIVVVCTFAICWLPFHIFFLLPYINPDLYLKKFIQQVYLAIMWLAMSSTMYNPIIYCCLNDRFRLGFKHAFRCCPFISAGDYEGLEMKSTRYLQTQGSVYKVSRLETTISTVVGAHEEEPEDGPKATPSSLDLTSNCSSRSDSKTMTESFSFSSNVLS
In short: as §2

[2] = target: T9, Human neuropeptide Y (NPY-Y1) (Homo sapiens, UniProt P25929); assay: Radioligand binding, human neuropeptide Y NPY-Y1 membranes, FlashPlate, [125I]-PYY; details: compound at 10 μM; for A9: inhibition of radioligand binding, human neuropeptide Y (NPY-Y1) / A9 radioligand binding, percentage inhibition: [125I]-PYY
T9 construct: purchased Perkin Elmer Biosignal
T9 sequence (P25929 1-384): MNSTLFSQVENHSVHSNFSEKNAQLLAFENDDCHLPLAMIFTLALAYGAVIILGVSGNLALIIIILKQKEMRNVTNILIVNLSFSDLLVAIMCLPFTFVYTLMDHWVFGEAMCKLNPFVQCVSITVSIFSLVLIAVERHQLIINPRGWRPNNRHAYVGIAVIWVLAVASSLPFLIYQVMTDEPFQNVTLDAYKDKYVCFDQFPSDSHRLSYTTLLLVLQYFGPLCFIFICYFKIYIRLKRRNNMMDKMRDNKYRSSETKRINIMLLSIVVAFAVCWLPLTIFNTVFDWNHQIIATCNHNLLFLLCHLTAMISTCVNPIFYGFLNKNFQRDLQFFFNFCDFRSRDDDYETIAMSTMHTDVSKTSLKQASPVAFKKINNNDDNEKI
In short: as §1

Human opioid (ORL1) = target: T10, Human opioid (ORL1) (Homo sapiens, UniProt P41146); assay: Radioligand binding, human opioid ORL1 membranes, FlashPlate, [125I]-Nociceptin; details: compound at 10 μM; for A10: inhibition of radioligand binding, human opioid (ORL1) / A10 radioligand binding, percentage inhibition: [125I]-Nociceptin
T10 construct: purchased Perkin Elmer Biosignal
T10 sequence (P41146 whole entry): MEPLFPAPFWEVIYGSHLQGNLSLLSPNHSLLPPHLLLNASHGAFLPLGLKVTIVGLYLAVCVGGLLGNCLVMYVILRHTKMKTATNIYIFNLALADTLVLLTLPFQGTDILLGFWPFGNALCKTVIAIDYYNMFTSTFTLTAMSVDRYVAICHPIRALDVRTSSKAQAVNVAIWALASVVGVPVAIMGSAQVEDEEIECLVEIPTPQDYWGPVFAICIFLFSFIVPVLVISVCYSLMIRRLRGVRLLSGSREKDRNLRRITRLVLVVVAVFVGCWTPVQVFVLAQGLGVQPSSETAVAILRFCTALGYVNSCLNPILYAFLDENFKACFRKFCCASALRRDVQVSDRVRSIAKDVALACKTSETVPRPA
In short: as §1

Mouse urotensin (mUR2) = target: T11, Mouse urotensin (mUR2) (Mus musculus, UniProt Q8VIH9); assay: Radioligand binding, mouse urotensin mUR2 membranes, FlashPlate, [125I]-Urotensin II; details: compound at 10 μM; for A11: inhibition of radioligand binding, mouse urotensin (mUR2) / A11 radioligand binding, percentage inhibition: [125I]-Urotensin II
T11 construct: purchased Perkin Elmer Biosignal
T11 sequence (Q8VIH9 1-385): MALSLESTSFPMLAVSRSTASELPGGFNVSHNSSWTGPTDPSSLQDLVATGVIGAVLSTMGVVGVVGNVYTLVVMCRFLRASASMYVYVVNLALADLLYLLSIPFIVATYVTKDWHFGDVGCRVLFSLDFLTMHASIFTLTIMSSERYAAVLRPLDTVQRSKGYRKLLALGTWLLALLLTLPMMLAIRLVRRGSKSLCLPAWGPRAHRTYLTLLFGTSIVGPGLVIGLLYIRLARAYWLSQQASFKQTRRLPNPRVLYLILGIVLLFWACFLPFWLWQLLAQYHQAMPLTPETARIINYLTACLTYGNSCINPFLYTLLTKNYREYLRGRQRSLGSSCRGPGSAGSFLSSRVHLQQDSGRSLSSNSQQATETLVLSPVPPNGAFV
In short: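 Cloned mouse urotensin (mUR2) receptor membranes from Perkin Elmer Biosignal were immobilized in FlashPlate microplates using a proprietary coating. Each well got 19.5 μl buffer, then 0.5 μl of DMSO, reference ligand, or compound. Adding 5 μl of [125I]-Urotensin II, diluted to 5× final concentration in binding buffer, started binding. Plates were sealed with TopSeal-A and incubated 1 hour at room temperature in the dark. Wells were counted for 30 seconds each on a TopCount after a 60-second delay, and percentage inhibition was calculated.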

T1 sequence (P41143 whole entry): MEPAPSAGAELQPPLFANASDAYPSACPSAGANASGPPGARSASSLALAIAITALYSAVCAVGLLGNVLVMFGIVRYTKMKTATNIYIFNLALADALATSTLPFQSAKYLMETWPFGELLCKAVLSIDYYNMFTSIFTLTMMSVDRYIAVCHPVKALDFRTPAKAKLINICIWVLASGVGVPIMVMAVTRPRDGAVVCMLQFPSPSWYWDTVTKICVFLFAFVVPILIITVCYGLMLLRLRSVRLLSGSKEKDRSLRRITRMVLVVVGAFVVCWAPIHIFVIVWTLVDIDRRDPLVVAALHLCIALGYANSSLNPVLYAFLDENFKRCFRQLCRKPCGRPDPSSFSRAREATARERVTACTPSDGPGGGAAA

SMILES | A1: inhibition of radioligand binding, human δ-opioid (DOP) (Human δ-opioid (DOP)) | A2: inhibition of radioligand binding, human κ-opioid (KOP) (Human κ-Opioid (KOP)) | A3: inhibition of radioligand binding, human melanocortin (MC3) (Human Melanocortin (MC3)) | A4: inhibition of radioligand binding, human melanocortin (MC4) (Human Melanocortin (MC4)) | A5: inhibition of radioligand binding, human melanocortin (MC5) (Human melanocortin (MC5)) | A8: inhibition of radioligand binding, human neurokinin (NK1) (Human neurokinin (NK1)) | A9: inhibition of radioligand binding, human neuropeptide Y (NPY-Y1) [2] | A10: inhibition of radioligand binding, human opioid (ORL1) (Human opioid (ORL1)) | A11: inhibition of radioligand binding, mouse urotensin (mUR2) (Mouse urotensin (mUR2)) | A1 radioligand binding, percentage inhibition (Human δ-opioid (DOP)) | A2 radioligand binding, percentage inhibition (Human κ-Opioid (KOP)) | A3 radioligand binding, percentage inhibition (Human Melanocortin (MC3)) | A4 radioligand binding, percentage inhibition (Human Melanocortin (MC4)) | A5 radioligand binding, percentage inhibition (Human melanocortin (MC5)) | A6 radioligand binding, percentage inhibition [1] | A7 radioligand binding, percentage inhibition (Human μ-opioid (MOP)) | A8 radioligand binding, percentage inhibition (Human neurokinin (NK1)) | A9 radioligand binding, percentage inhibition [2] | A10 radioligand binding, percentage inhibition (Human opioid (ORL1)) | A11 radioligand binding, percentage inhibition (Mouse urotensin (mUR2)) | further results
COC[C@H]1OC(OCc2ccc3ccccc3c2)[C@H](NC(=O)CCCNC(=N)N)[C@@H](OCc2ccccc2)[C@@H]1O (stereo partly shown) [compound 21] |  |  |  |  |  |  |  |  |  |  |  |  |  |  |  |  |  |  |  |  | A1 radioligand binding inhibition (Human δ-opioid (DOP); human δ-opioid (DOP) membranes): − (“−” indicates less than 50% inhibition at 10 μM); A2 radioligand binding inhibition (Human κ-Opioid (KOP); human κ-opioid (KOP) membranes): − (“−” indicates less than 50% inhibition at 10 μM); A3 radioligand binding inhibition (Human Melanocortin (MC3); human melanocortin MC3 membranes): − (“−” indicates less than 50% inhibition at 10 μM); A4 radioligand binding inhibition (Human Melanocortin (MC4); human melanocortin MC4 membranes): − (“−” indicates less than 50% inhibition at 10 μM); A5 radioligand binding inhibition (Human melanocortin (MC5); human melanocortin MC5 membranes): − (“−” indicates less than 50% inhibition at 10 μM); A6 radioligand binding inhibition ([1]; human MCH1 membranes): − (“−” indicates less than 50% inhibition at 10 μM); A7 radioligand binding inhibition (Human μ-opioid (MOP); human μ-opioid (MOP) membranes): − (“−” indicates less than 50% inhibition at 10 μM); A8 radioligand binding inhibition (Human neurokinin (NK1); human neurokinin NK1 membranes): + (“+” indicates greater than 50% inhibition at 10 μM); A9 radioligand binding inhibition ([2]; human NPY-Y1 membranes): − (“−” indicates less than 50% inhibition at 10 μM); A10 radioligand binding inhibition (Human opioid (ORL1); human ORL1 membranes): − (“−” indicates less than 50% inhibition at 10 μM); A11 radioligand binding inhibition (Mouse urotensin (mUR2); mouse urotensin mUR2 membranes): − (“−” indicates less than 50% inhibition at 10 μM)
NCCCC(=O)NC1C(OCc2ccccc2)OC(COCc2ccc(Cl)cc2)C(O)C1OCc1ccc2ccccc2c1 (stereo not shown) [compound 377] | − (“−” indicates less than 50% inhibition at 10 μM) | − (“−” indicates less than 50% inhibition at 10 μM) | + (“+” indicates greater than 50% inhibition at 10 μM) | + (“+” indicates greater than 50% inhibition at 10 μM) | + (“+” indicates greater than 50% inhibition at 10 μM) | + (“+” indicates greater than 50% inhibition at 10 μM) | − (“−” indicates less than 50% inhibition at 10 μM) | − (“−” indicates less than 50% inhibition at 10 μM) | − (“−” indicates less than 50% inhibition at 10 μM) |  |  |  |  |  |  |  |  |  |  |  | A6: inhibition of radioligand binding, human melanin-concentrating hormone (MCH1) [1]: − (“−” indicates less than 50% inhibition at 10 μM); A7: inhibition of radioligand binding, human μ-opioid (MOP) (Human μ-opioid (MOP)): − (“−” indicates less than 50% inhibition at 10 μM)
COC[C@H]1OC(OCc2cccc(O)c2)[C@H](NC(=O)CCNC(=N)N)[C@@H](OCc2ccc(-c3ccccc3)cc2)[C@@H]1O (stereo partly shown) [compound 142] |  |  |  |  |  |  |  |  |  | − (“−” indicates less than 50% inhibition at 10 μM) | − (“−” indicates less than 50% inhibition at 10 μM) | − (“−” indicates less than 50% inhibition at 10 μM) | − (“−” indicates less than 50% inhibition at 10 μM) | − (“−” indicates less than 50% inhibition at 10 μM) | + (“+” indicates greater than 50% inhibition at 10 μM) | − (“−” indicates less than 50% inhibition at 10 μM) | − (“−” indicates less than 50% inhibition at 10 μM) | − (“−” indicates less than 50% inhibition at 10 μM) | − (“−” indicates less than 50% inhibition at 10 μM) | − (“−” indicates less than 50% inhibition at 10 μM) | 
COCC1OC(OCc2ccccc2)C(NC(=O)CCNC(=N)N)C(OCc2ccc(Cl)cc2)C1O (stereo not shown) [compound 179] |  |  |  |  |  |  |  |  |  | + (“+” indicates greater than 50% inhibition at 10 μM) | − (“−” indicates less than 50% inhibition at 10 μM) | + (“+” indicates greater than 50% inhibition at 10 μM) | + (“+” indicates greater than 50% inhibition at 10 μM) | + (“+” indicates greater than 50% inhibition at 10 μM) | + (“+” indicates greater than 50% inhibition at 10 μM) | − (“−” indicates less than 50% inhibition at 10 μM) | + (“+” indicates greater than 50% inhibition at 10 μM) | − (“−” indicates less than 50% inhibition at 10 μM) | − (“−” indicates less than 50% inhibition at 10 μM) | − (“−” indicates less than 50% inhibition at 10 μM) | 
NCCCC(=O)NC1C(OCc2ccc(Cl)cc2)OC(COCc2ccc(Cl)cc2)C(O)C1OCc1ccc2ccccc2c1 (single isomer, unassigned) [compound 500] | − (“−” indicates less than 50% inhibition at 10 μM) | − (“−” indicates less than 50% inhibition at 10 μM) | + (“+” indicates greater than 50% inhibition at 10 μM) | + (“+” indicates greater than 50% inhibition at 10 μM) | + (“+” indicates greater than 50% inhibition at 10 μM) | + (“+” indicates greater than 50% inhibition at 10 μM) | − (“−” indicates less than 50% inhibition at 10 μM) | + (“+” indicates greater than 50% inhibition at 10 μM) | − (“−” indicates less than 50% inhibition at 10 μM) |  |  |  |  |  |  |  |  |  |  |  | A6: inhibition of radioligand binding, human melanin-concentrating hormone (MCH1) ([1]; 10 µM): + (“+” indicates greater than 50% inhibition at 10 μM); A7: inhibition of radioligand binding, human μ-opioid (MOP) (Human μ-opioid (MOP); 10 µM): + (“+” indicates greater than 50% inhibition at 10 μM)

Source: patent US20080009418A1, “Selective Inhibitors” (Alchemia LTD., priority 2004, published 2008)
